From patent US11440900B2, “Agricultural chemicals” (GLOBACHEM NV, priority 2018, dated 2022)

Columns and labels:
Type in all cases: cell-based
[1] = tested on: Zymoseptoria tritici; experiment: Fungicidal activity screen in amended agar, 96 well plates, Zymoseptoria tritici; conditions: 168 h, fungal growth vs DMSO control, 1% potato dextrose agar, 10,000 spores/ml, 20, 2, 0.2 and 0.02 ppm, 18° C., assessed after 7 days, read-out: Zymoseptoria EC50 ranking
Protocol: (§1) Compounds were screened in 96 well plates with 10 compounds per plate. Each compound was screened using agar amended to 20, 2, 0.2 and 0.02 ppm of the test material. Proline at 50 and 10 ppm and 0.2% DMSO were used respectively as positive and negative controls. Each test concentration and standard were tested twice on a plate.
(§2) Compounds were screened against the following three fungal pathogens—Botrytis cinerea, Alternaria alternata and Zymoseptoria tritici. The agar used in the test varied depending on the pathogen with Medium N used for B. cinerea and A. alternata and 1% potato dextrose agar for Z. tritici. For each pathogen sufficient spores were added to the appropriate agar to give 1,000 spores/ml agar of A. alternata, 5,000 spores/ml agar of B. cinerea and 10,000 spores/ml agar of Z. tritici.
(§3) A ×10 stock solution in 2% DMSO was produced for each dose i.e. 200, 20, 2 and 0.2 ppm, and 10 μl of this added to the appropriate wells on the plate. An equivalent amount of 2% DMSO and Proline stock at 500 and 100 ppm were added for the controls. To each well 90 μl of the appropriate agar spore suspension was added to give the final well concentrations outlined in the first paragraph.
(§4) Plates were incubated at room temperature (18° C.) and assessed after • a) 3 to 4 days A. alternata and B. cinerea • b) 7 days for Z. tritici
(§5) The amount of fungal growth in each well was compared to the DMSO controls and scored according to the following key • 0—no growth (100% control) • 1—growth reduced by 75% compared to DMSO control (25% growth) • 2—growth reduced by 50% compared to DMSO control (50% growth) • 3—growth reduced by 25% compared to DMSO control growth (75% growth) • 4—no reduction in growth compared to DMSO control growth (100% growth)
(§6) Those numbers were then used to give an EC50. The ranking in the table is: • A) EC50<20 ppm, B) EC50≥20ppm

[2] = tested on: Botrytis cinerea; experiment: Fungicidal activity screen in amended agar, 96 well plates, Botrytis cinerea; conditions: fungal growth vs DMSO control, Medium N agar, 5,000 spores/ml, 20, 2, 0.2 and 0.02 ppm, 18° C., assessed after 3 to 4 days, read-out: Botrytis EC50 ranking
Protocol: as §1, §2, §3, §4, §5, §6

[3] = tested on: Alternaria alternata; experiment: Fungicidal activity screen in amended agar, 96 well plates, Alternaria alternata; conditions: fungal growth vs DMSO control, Medium N agar, 1,000 spores/ml, 20, 2, 0.2 and 0.02 ppm, 18° C., assessed after 3 to 4 days, read-out: Alternaria EC50 ranking
Protocol: as §1, §2, §3, §4, §5, §6

**Q.** What does the source list for Cc1ncnc(-n2cnc3cc(F)cc(F)c32)c1-c1ccc(F)cc1Cl [Example 1, 1-(5-(2-Chloro-4-fluorophenyl)-6-methylpyrimidin-4-yl)-5,7-difluoro-1H-benzo[d]imidazole]?
**A.** EC50 [1]: < 20 µg/mL; EC50 [2]: < 20 µg/mL; EC50 [3]: < 20 µg/mL

**Q.** For COc1ccc(-c2c(C)ncnc2-n2cnc3cc(F)cc(F)c32)c(Cl)c1 [Example 2], which EC50 [1] is on record?
**A.** < 20 µg/mL

**Q.** What about the EC50 [2] of the same molecule?
**A.** < 20 µg/mL

**Q.** What about the EC50 [3] of the same molecule?
**A.** < 20 µg/mL

**Q.** What does the source list for Cc1ncnc(-n2cnc3cc(F)cc(F)c32)c1-c1ccccc1Cl [Example 3]?
**A.** EC50 [1]: < 20 µg/mL; EC50 [2]: < 20 µg/mL; EC50 [3]: < 20 µg/mL

**Q.** For Cc1ccnc(-n2cnc3cc(F)cc(F)c32)c1-c1ccc(F)cc1Cl [Example 4], which EC50 [1] is on record?
**A.** < 20 µg/mL

**Q.** What about the EC50 [2] of the same molecule?
**A.** < 20 µg/mL

**Q.** What about the EC50 [3] of the same molecule?
**A.** < 20 µg/mL

**Q.** How did the EC50 [1] turn out when Fc1ccc(-c2c(-n3cnc4cc(F)cc(F)c43)ccnc2Cl)c(Cl)c1 [Example 5] was run?
**A.** < 20 µg/mL

**Q.** And the EC50 [2]?
**A.** < 20 µg/mL

**Q.** What about the EC50 [3] of the same molecule?
**A.** < 20 µg/mL

**Q.** With Cc1cccc(-n2cnc3cc(F)cc(F)c32)c1-c1ccc(F)cc1Cl [Example 6] as the molecule, how does the EC50 [1] read?
**A.** < 20 µg/mL

**Q.** And the EC50 [2]?
**A.** < 20 µg/mL

**Q.** What about the EC50 [3] of the same molecule?
**A.** < 20 µg/mL

**Q.** COc1cc(F)c(-c2c(C)cccc2-n2cnc3cc(F)cc(F)c32)c(F)c1 [Example 7] was tested. Which EC50 [1] did it give?
**A.** < 20 µg/mL

**Q.** What about the EC50 [2] of the same molecule?
**A.** < 20 µg/mL

**Q.** What about the EC50 [3] of the same molecule?
**A.** < 20 µg/mL

**Q.** With Cc1cccc(-n2cnc3ccccc32)c1-c1ccc(F)cc1Cl [Example 8] as the molecule, how does the EC50 [1] read?
**A.** < 20 µg/mL

**Q.** What about the EC50 [2] of the same molecule?
**A.** < 20 µg/mL

**Q.** And the EC50 [3]?
**A.** < 20 µg/mL

**Q.** Cc1cccc(-n2cnc3cc(Cl)ccc32)c1-c1ccc(F)cc1Cl [Example 9] was tested. Which EC50 [1] did it give?
**A.** < 20 µg/mL

**Q.** And the EC50 [2]?
**A.** < 20 µg/mL

**Q.** And the EC50 [3]?
**A.** < 20 µg/mL

**Q.** Which EC50 [1] does the source give for Cc1ccc2c(c1)ncn2-c1cccc(C)c1-c1ccc(F)cc1Cl [Example 10] here?
**A.** < 20 µg/mL

**Q.** And the EC50 [2]?
**A.** < 20 µg/mL

**Q.** What about the EC50 [3] of the same molecule?
**A.** < 20 µg/mL

**Q.** With COc1ccc(-c2c(C)ncnc2-n2cnc3cc(Cl)cc(F)c32)c(Cl)c1 [Example 11] as the molecule, how does the EC50 [1] read?
**A.** < 20 µg/mL

**Q.** And the EC50 [2]?
**A.** < 20 µg/mL

**Q.** And the EC50 [3]?
**A.** < 20 µg/mL

**Q.** For Cc1ncnc(-n2cnc3cc(Cl)cc(F)c32)c1-c1ccc(F)cc1Cl [Example 12], which EC50 [1] is on record?
**A.** < 20 µg/mL

**Q.** What about the EC50 [2] of the same molecule?
**A.** < 20 µg/mL

**Q.** And the EC50 [3]?
**A.** < 20 µg/mL

**Q.** With COc1ccc(-c2c(-n3cnc4cc(Cl)cc(F)c43)ccnc2Cl)c(Cl)c1 [Example 13] as the molecule, how does the EC50 [1] read?
**A.** < 20 µg/mL

**Q.** What about the EC50 [2] of the same molecule?
**A.** < 20 µg/mL

**Q.** And the EC50 [3]?
**A.** < 20 µg/mL

**Q.** What does the source list for Fc1ccc(-c2c(-n3cnc4cc(Cl)cc(F)c43)ccnc2Cl)c(Cl)c1 [Example 14]?
**A.** EC50 [1]: < 20 µg/mL; EC50 [2]: < 20 µg/mL; EC50 [3]: < 20 µg/mL

**Q.** Which results are given for C#CCOc1ccc2c(c1)ncn2-c1ccnc(Cl)c1-c1ccc(F)cc1Cl [Example 15]?
**A.** EC50 [1]: < 20 µg/mL; EC50 [2]: < 20 µg/mL; EC50 [3]: < 20 µg/mL

**Q.** What does the source list for Cc1ccnc(-n2cnc3cc(Cl)cc(F)c32)c1-c1ccc(F)cc1Cl [Example 16]?
**A.** EC50 [1]: < 20 µg/mL; EC50 [2]: < 20 µg/mL; EC50 [3]: < 20 µg/mL

**Q.** With C#CCOc1ccc2c(c1)ncn2-c1nccc(C)c1-c1ccc(F)cc1Cl [Example 17] as the molecule, how does the EC50 [1] read?
**A.** < 20 µg/mL

**Q.** And the EC50 [2]?
**A.** < 20 µg/mL

**Q.** What about the EC50 [3] of the same molecule?
**A.** < 20 µg/mL

**Q.** Which results are given for COc1ccc(-c2c(-n3cnc4cc(Br)cc(F)c43)ccnc2Cl)c(Cl)c1 [Example 18]?
**A.** EC50 [1]: < 20 µg/mL; EC50 [2]: < 20 µg/mL; EC50 [3]: < 20 µg/mL

**Q.** What does the source list for COc1cc(F)c(-c2c(C)ncnc2-n2cnc3cc(Cl)cc(F)c32)c(F)c1 [Example 19]?
**A.** EC50 [1]: < 20 µg/mL; EC50 [2]: < 20 µg/mL; EC50 [3]: < 20 µg/mL

**Q.** For COc1ccc(-c2c(-n3nnc4cc(Cl)cc(F)c43)ccnc2Cl)c(Cl)c1 [Example 20, 5-Chloro-1-(2-chloro-3-(2-chloro-4-methoxyphenyl)pyridin-4-yl)-7-fluoro-1H-benzo[d][1,2,3]triazole], which EC50 [1] is on record?
**A.** < 20 µg/mL

**Q.** And the EC50 [2]?
**A.** < 20 µg/mL

**Q.** And the EC50 [3]?
**A.** < 20 µg/mL

**Q.** What does the source list for Cc1ncnc(-n2nnc3cc(Cl)cc(F)c32)c1-c1ccc(F)cc1Cl [Example 21]?
**A.** EC50 [1]: < 20 µg/mL; EC50 [2]: < 20 µg/mL; EC50 [3]: ≥ 20 µg/mL

**Q.** For COc1ccc(-c2c(C)ncnc2-n2nnc3cc(Cl)cc(F)c32)c(Cl)c1 [Example 22], which EC50 [1] is on record?
**A.** < 20 µg/mL

**Q.** What about the EC50 [2] of the same molecule?
**A.** < 20 µg/mL

**Q.** And the EC50 [3]?
**A.** ≥ 20 µg/mL

**Q.** Cc1ccnc(-n2nnc3cc(Cl)cc(F)c32)c1-c1ccc(F)cc1Cl [Example 23] was tested. Which EC50 [1] did it give?
**A.** < 20 µg/mL

**Q.** And the EC50 [2]?
**A.** < 20 µg/mL

**Q.** And the EC50 [3]?
**A.** < 20 µg/mL

**Q.** How did the EC50 [1] turn out when COc1ccc(-c2c(C)ccnc2-n2nnc3cc(Cl)cc(F)c32)c(Cl)c1 [Example 24] was run?
**A.** < 20 µg/mL

**Q.** And the EC50 [2]?
**A.** < 20 µg/mL

**Q.** What about the EC50 [3] of the same molecule?
**A.** ≥ 20 µg/mL

**Q.** Fc1ccc(-c2c(-n3nnc4cc(Cl)cc(F)c43)ccnc2Cl)c(Cl)c1 [Example 25] was tested. Which EC50 [1] did it give?
**A.** < 20 µg/mL

**Q.** What about the EC50 [2] of the same molecule?
**A.** < 20 µg/mL

**Q.** What about the EC50 [3] of the same molecule?
**A.** < 20 µg/mL

**Q.** For COc1ccc(-c2c(-n3nnc4cc(Br)cc(F)c43)ccnc2Cl)c(Cl)c1 [Example 26], which EC50 [1] is on record?
**A.** ≥ 20 µg/mL

**Q.** And the EC50 [2]?
**A.** < 20 µg/mL

**Q.** And the EC50 [3]?
**A.** ≥ 20 µg/mL

**Q.** For Fc1ccc(-c2c(-n3cnc4cc(F)ccc43)cnnc2Cl)c(Cl)c1 [Example 27], which EC50 [1] is on record?
**A.** < 20 µg/mL

**Q.** And the EC50 [2]?
**A.** < 20 µg/mL

**Q.** And the EC50 [3]?
**A.** ≥ 20 µg/mL
